Assay results taken from patent publication US12077503B2, “Substituted cyclic amides and their use as herbicides” (FMC CORPORATION, priority 2015, dated 2024).

What was measured:
Type in all cases: in vivo
[1] = system: Kochia (Kochia scoparia); assay: Test A preemergence; conditions: Bassia scoparia, pre-emergence, 240 h, preemergence, 0 to 100 scale where 0 is no effect and 100 is complete control, read-out: Kochia plant response rating; for pest or weed control at 125 g/ha: 125 g ai/ha, visual injury rating, approximately 10 d; for pest or weed control at 500 g/ha: 500 g ai/ha
Outline: (§1)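 Preemergence soil spray on seeded pots or post-emergence spray on 1–2 leaf plants, in loam–sand blend. Greenhouse ~10 d. Visual rating 0–100 against untreated plants.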

[2] = system: ryegrass, Italian (Italian ryegrass, Lolium multiflorum); assay: Test A preemergence; conditions: Lolium multiflorum, pre-emergence, 240 h, preemergence, 0 to 100 scale where 0 is no effect and 100 is complete control, read-out: Ryegrass, Italian plant response rating; for pest or weed control at 125 g/ha: 125 g ai/ha, visual injury rating, approximately 10 d; for pest or weed control at 500 g/ha: 500 g ai/ha
Outline: as §1

[3] = system: pigweed (Amaranthus retroflexus); assay: Test A preemergence; conditions: Amaranthus retroflexus, pre-emergence, 240 h, preemergence, 0 to 100 scale where 0 is no effect and 100 is complete control, read-out: Pigweed plant response rating; for pest or weed control at 125 g/ha: 125 g ai/ha, visual injury rating, approximately 10 d; for pest or weed control at 500 g/ha: 500 g ai/ha
[4] = system: giant foxtail (Setaria faberii); assay: Test A preemergence; conditions: Setaria faberi, pre-emergence, 240 h, preemergence, 0 to 100 scale where 0 is no effect and 100 is complete control, read-out: Foxtail, Giant plant response rating; for pest or weed control at 125 g/ha: 125 g ai/ha, visual injury rating, approximately 10 d; for pest or weed control at 500 g/ha: 500 g ai/ha
Outline: as §1

[5] = system: ragweed (common ragweed, Ambrosia elatior); assay: Test A preemergence; conditions: Ambrosia artemisiifolia, pre-emergence, 240 h, preemergence, 0 to 100 scale where 0 is no effect and 100 is complete control, read-out: Ragweed plant response rating; for pest or weed control at 125 g/ha: 125 g ai/ha, visual injury rating, approximately 10 d; for pest or weed control at 500 g/ha: 500 g ai/ha
Outline: as §1

[6] = system: barnyardgrass (Echinochloa crus-galli); assay: Test A preemergence; conditions: Echinochloa crus-galli, pre-emergence, 240 h, preemergence, 0 to 100 scale where 0 is no effect and 100 is complete control, read-out: Barnyardgrass plant response rating; for pest or weed control at 125 g/ha: 125 g ai/ha, visual injury rating, approximately 10 d; for pest or weed control at 500 g/ha: 500 g ai/ha
Outline: as §1

[7] = system: Kochia (Kochia scoparia); assay: Test A postemergence; conditions: Bassia scoparia, post-emergence, 240 h, postemergence; for pest or weed control at 125 g/ha: 125 g ai/ha, visual injury vs untreated controls after approx. 10 d, 0 = no effect, 100 = complete control, read-out: Kochia plant response rating (0 to 100 scale); for pest or weed control at 500 g/ha: 500 g ai/ha, 0 to 100 scale, 0 is no effect, 100 is complete control, read-out: Kochia plant response rating
Outline: as §1

[8] = system: Galium (catchweed bedstraw, Galium aparine); assay: Test A postemergence; conditions: Galium, post-emergence, 240 h, postemergence; for pest or weed control at 125 g/ha: 125 g ai/ha, visual injury vs untreated controls after approx. 10 d, 0 = no effect, 100 = complete control, read-out: Galium plant response rating (0 to 100 scale); for pest or weed control at 500 g/ha: 500 g ai/ha, 0 to 100 scale, 0 is no effect, 100 is complete control, read-out: Galium plant response rating
Outline: as §1

[9] = system: blackgrass (Alopecurus myosuroides); assay: Test A postemergence; conditions: Alopecurus myosuroides, post-emergence, 240 h, postemergence; for pest or weed control at 125 g/ha: 125 g ai/ha, visual injury vs untreated controls after approx. 10 d, 0 = no effect, 100 = complete control, read-out: Blackgrass plant response rating (0 to 100 scale); for pest or weed control at 500 g/ha: 500 g ai/ha, 0 to 100 scale, 0 is no effect, 100 is complete control, read-out: Blackgrass plant response rating
Outline: as §1

[10] = system: ryegrass, Italian (Italian ryegrass, Lolium multiflorum); assay: Test A postemergence; conditions: Lolium multiflorum, post-emergence, 240 h, postemergence; for pest or weed control at 125 g/ha: 125 g ai/ha, visual injury vs untreated controls after approx. 10 d, 0 = no effect, 100 = complete control, read-out: Ryegrass, Italian plant response rating (0 to 100 scale); for pest or weed control at 500 g/ha: 500 g ai/ha, 0 to 100 scale, 0 is no effect, 100 is complete control, read-out: Ryegrass, Italian plant response rating
Outline: as §1

[11] = system: wheat (Triticum aestivum); assay: Test A postemergence; conditions: Triticum aestivum, post-emergence, 240 h, postemergence; for plant injury at 125 g/ha: 125 g ai/ha, visual injury vs untreated controls after approx. 10 d, 0 = no effect, 100 = complete control, read-out: Wheat plant response rating (0 to 100 scale); for plant injury at 500 g/ha: 500 g ai/ha, 0 to 100 scale, 0 is no effect, 100 is complete control, read-out: Wheat plant response rating
Outline: as §1

[12] = system: pigweed (Amaranthus retroflexus); assay: Test A postemergence; conditions: Amaranthus retroflexus, post-emergence, 240 h, postemergence; for pest or weed control at 125 g/ha: 125 g ai/ha, visual injury vs untreated controls after approx. 10 d, 0 = no effect, 100 = complete control, read-out: Pigweed plant response rating (0 to 100 scale); for pest or weed control at 500 g/ha: 500 g ai/ha, 0 to 100 scale, 0 is no effect, 100 is complete control, read-out: Pigweed plant response rating
Outline: as §1

[13] = system: corn (Zea mays); assay: Test A postemergence; conditions: Zea mays, post-emergence, 240 h, postemergence; for plant injury at 125 g/ha: 125 g ai/ha, visual injury vs untreated controls after approx. 10 d, 0 = no effect, 100 = complete control, read-out: Corn plant response rating (0 to 100 scale); for plant injury at 500 g/ha: 500 g ai/ha, 0 to 100 scale, 0 is no effect, 100 is complete control, read-out: Corn plant response rating
Outline: as §1

[14] = system: giant foxtail (Setaria faberii); assay: Test A postemergence; conditions: Setaria faberi, post-emergence, 240 h, postemergence; for pest or weed control at 125 g/ha: 125 g ai/ha, visual injury vs untreated controls after approx. 10 d, 0 = no effect, 100 = complete control, read-out: Foxtail, Giant plant response rating (0 to 100 scale); for pest or weed control at 500 g/ha: 500 g ai/ha, 0 to 100 scale, 0 is no effect, 100 is complete control, read-out: Foxtail, Giant plant response rating
Outline: as §1

[15] = system: ragweed (common ragweed, Ambrosia elatior); assay: Test A postemergence; conditions: Ambrosia artemisiifolia, post-emergence, 240 h, postemergence; for pest or weed control at 125 g/ha: 125 g ai/ha, visual injury vs untreated controls after approx. 10 d, 0 = no effect, 100 = complete control, read-out: Ragweed plant response rating (0 to 100 scale); for pest or weed control at 500 g/ha: 500 g ai/ha, 0 to 100 scale, 0 is no effect, 100 is complete control, read-out: Ragweed plant response rating
Outline: as §1

[16] = system: barnyardgrass (Echinochloa crus-galli); assay: Test A postemergence; conditions: Echinochloa crus-galli, post-emergence, 240 h, postemergence; for pest or weed control at 125 g/ha: 125 g ai/ha, visual injury vs untreated controls after approx. 10 d, 0 = no effect, 100 = complete control, read-out: Barnyardgrass plant response rating (0 to 100 scale); for pest or weed control at 500 g/ha: 500 g ai/ha, 0 to 100 scale, 0 is no effect, 100 is complete control, read-out: Barnyardgrass plant response rating
Outline: as §1

Cc1cc([C@H]2CN(C)C(=O)[C@@H]2C(=O)Nc2ccccc2F)no1 [Compound 1194]
30%: pest or weed control at 500 g/ha [6]
20%: pest or weed control at 500 g/ha [4] | pest or weed control at 500 g/ha [14] | pest or weed control at 500 g/ha [16]
0%: pest or weed control at 125 g/ha [1] | pest or weed control at 500 g/ha [1] | pest or weed control at 125 g/ha [2] | pest or weed control at 500 g/ha [2] | pest or weed control at 125 g/ha [3] | pest or weed control at 500 g/ha [3] | pest or weed control at 125 g/ha [4] | pest or weed control at 125 g/ha [5] | pest or weed control at 500 g/ha [5] | pest or weed control at 125 g/ha [6] | pest or weed control at 125 g/ha [7] | pest or weed control at 500 g/ha [7] | pest or weed control at 125 g/ha [8] | pest or weed control at 500 g/ha [8] | pest or weed control at 125 g/ha [9] | pest or weed control at 500 g/ha [9] | pest or weed control at 125 g/ha [10] | pest or weed control at 500 g/ha [10] | plant injury at 125 g/ha [11] | plant injury at 500 g/ha [11] | pest or weed control at 125 g/ha [12] | pest or weed control at 500 g/ha [12] | plant injury at 125 g/ha [13] | plant injury at 500 g/ha [13] | pest or weed control at 125 g/ha [14] | pest or weed control at 125 g/ha [15] | pest or weed control at 500 g/ha [15] | pest or weed control at 125 g/ha [16]

Cc1cc([C@H]2CN(C)C(=O)[C@@H]2C(=O)Nc2cccc(F)c2F)on1 [Compound 1196]
50%: pest or weed control at 125 g/ha [6]
90%: pest or weed control at 500 g/ha [4] | pest or weed control at 500 g/ha [6] | pest or weed control at 500 g/ha [16]
0%: pest or weed control at 125 g/ha [1] | pest or weed control at 500 g/ha [1] | pest or weed control at 125 g/ha [2] | pest or weed control at 500 g/ha [2] | pest or weed control at 125 g/ha [3] | pest or weed control at 500 g/ha [3] | pest or weed control at 125 g/ha [5] | pest or weed control at 500 g/ha [5] | pest or weed control at 125 g/ha [7] | pest or weed control at 500 g/ha [7] | pest or weed control at 125 g/ha [8] | pest or weed control at 500 g/ha [8] | pest or weed control at 125 g/ha [9] | pest or weed control at 500 g/ha [9] | pest or weed control at 125 g/ha [10] | pest or weed control at 500 g/ha [10] | plant injury at 125 g/ha [11] | plant injury at 500 g/ha [11] | pest or weed control at 125 g/ha [12] | pest or weed control at 500 g/ha [12] | plant injury at 125 g/ha [13] | plant injury at 500 g/ha [13] | pest or weed control at 125 g/ha [15] | pest or weed control at 500 g/ha [15]
70%: pest or weed control at 125 g/ha [4] | pest or weed control at 125 g/ha [16]
80%: pest or weed control at 500 g/ha [14]
30%: pest or weed control at 125 g/ha [14]

N#Cc1cc([C@H]2CNC(=O)[C@@H]2C(=O)Nc2ccccc2F)ccc1F [Compound 1199]
100%: pest or weed control at 500 g/ha [4] | pest or weed control at 500 g/ha [6] | pest or weed control at 500 g/ha [16]
70%: pest or weed control at 125 g/ha [14] | pest or weed control at 125 g/ha [16]
20%: pest or weed control at 125 g/ha [7] | pest or weed control at 125 g/ha [8] | pest or weed control at 500 g/ha [10] | pest or weed control at 500 g/ha [12]
90%: pest or weed control at 125 g/ha [4] | pest or weed control at 500 g/ha [5] | pest or weed control at 125 g/ha [6] | pest or weed control at 500 g/ha [14]
30%: pest or weed control at 125 g/ha [5]
60%: pest or weed control at 500 g/ha [3]
40%: pest or weed control at 500 g/ha [7] | pest or weed control at 500 g/ha [8]
0%: pest or weed control at 125 g/ha [1] | pest or weed control at 500 g/ha [1] | pest or weed control at 125 g/ha [2] | pest or weed control at 500 g/ha [2] | pest or weed control at 125 g/ha [3] | pest or weed control at 125 g/ha [9] | pest or weed control at 500 g/ha [9] | pest or weed control at 125 g/ha [10] | plant injury at 125 g/ha [11] | plant injury at 500 g/ha [11] | pest or weed control at 125 g/ha [12] | plant injury at 125 g/ha [13] | plant injury at 500 g/ha [13] | pest or weed control at 125 g/ha [15] | pest or weed control at 500 g/ha [15]
